Drawing on patent publication US20120157471A1, “BENZIMIDAZOLE DERIVATIVES” (PFIZER INC., priority 2009, published 2012), this text covers inhibition and IC50 for 22 compounds.

For assay [1], the target named is T1, human Smo (amino acids 181-787) (Homo sapiens, UniProt Q99835).
T1 construct: expressed in transfected cells; membrane preparation
Put plainly: Smo radioligand competition binding assay (displacement of 3H-PF-03451358 from HEK293 membranes). The settings on record: for inhibition at 0.05 µM: 0.05 μM test compound, displacement of 3H-PF-03451358, read-out: SMO % inh. @ 0.05 μM; for pIC50: radioligand competition binding. As for the experimental part: Membranes were prepared from a stable cell line created in HEK293FlpIn-TetR cells (Invitrogen) using FIp recombinase-mediated insertion of the pSecTag-FRT/V5-His vector containing a cDNA encoding amino acids 181-787 of human Smo fused to the murine lgk leader sequence to produce a cell surface expressed Smo 181-781 protein. Hygromycin-resistant clones were obtained and stained for LacZ expression (no expression indicates a correct knock-in of my fusion cDNA). LacZ-negative cells were analyzed for binding tritiated Smo antagonist PF-03451358. For membrane preparation, the HEK293 cells expressing Smo 181-781 were grown to 90% confluence in nine to fifteen 245 mm×245 mm×22 mm dishes, washed with Dulbecco's PBS (15 ml per dish) and harvested via scraping in 10 ml of DPBS. The cells were collected and centrifuged at 1500 rpm (400×g) for 10 min at 4° C. The cell pellets were re-suspended in 40 ml of cold DPBS and washed by centrifugation at 2300 rpm (950×g max) for 10 minutes at 4° C. The supernatant was aspirated and the cell pellet was snap frozen in a methanol/dry ice bath and stored at −70° C. For membrane preparation, 15 ml of Membrane Preparation Buffer (50 mM Tris-HCl pH 7.5, 250 mM sucrose with Roche complete protease cocktail tablets) is added to the tube containing the cell pellet, then cells are rapidly thawed, and homogenized using an Ultra-Turrax T8 (IKA Labortechnik) set on “6” for 15 seconds for 5-6 times in icy water bath. This homogenate was diluted up to 50 ml using Membrane Preparation Buffer and centrifuged at 35,000 rpm in a Beckman Ti45 rotor (140,000×g) for 35 minutes at 4° C. followed by aspiration of the supernatant and re-suspension of the pellet in 5 ml of Assay Buffer (50 mM Tris-HCl pH 7.5, 100 mM NaCl, 25 mM MgCl2, 1 mM EDTA, and 0.1% protease free bovine serum albumin). The re-suspended pellet is then homogenized in a glass tissue grinder. The re-suspended membranes are aliquoted (0.5 ml aliquots), snap frozen and stored at −70° C. Total protein in the membrane preparation is determined using the Pierce BCA protein assay (Pierce Chemical).
For the binding competition assay, 100 μl of Assay Buffer is added to all the wells of a 96 well GF/B filter plate (Millipore MultiScreen-HTS-FB cat# MSFBN6B50) for 10 minutes to pre-wet the filter prior to evacuation of the buffer (8 inches Hg for 8 seconds). To the pre-wet wells is added: 20 μl of Assay Buffer, 10 μl diluted test agent, 20 μl of ^3H-PF-3451358 (15 nM stock solution), and 50 μl of membrane preparation (40 μg total protein per well). The plates are sealed and mixed at room temperature for 5 min, incubated at room temperature for 2 hours, then washed 5 times with 100 μl/each of wash buffer and vacuum dried for 8 seconds at 8 inch Hg. The plate is then dried for one hour in a 60° C. oven prior to the addition of 45 μl of Microscint 20 (Packard, #6013621) to each well and incubation at RT for 30 minutes to 1 hour. The plate is counted in a TopCount scintillation counter (Perkin Elmer).
Data analysis uses Excel for % Inhibition and Graphpad Prism for IC50 calculation. Total binding (TB, in the absence of inhibitors)=average of ^3H PF-03451358 3 nM+SMO membrane (40 μg/wells (approx 5000-7000 CPM). Non-specific binding (NSB)=average of ^3H PF-03451358 (3 nM)+cold PF-03451358 (30 μM)+SMO membrane (approx 600-1200 CPM). Specific binding (SB)=(total binding−non-specific binding). % Inhibition=[1−(compound Specific binding/control Specific binding)]×100%. IC50 is calculated by fitting the data to the four parameter sigmoidal dose-response curve (variable slope) Y=Bottom+(Top-Bottom)/(1+10̂((LogEC50−X)*HillSlope)). X is the logarithm of the inhibitor concentration. Y is the response; Y starts at Bottom and goes to Top with a sigmoid shape.

The test system of a further assay is Gli-Luc/MEF cells (Smo). Put plainly: Gli-Luc/MEF assay (Shh-stimulated luciferase reporter under the Gli response element). The assay is classed as cell-based, mouse. To be noted: Mus musculus, MEF, 48 h. The protocol:
The Gli-Luc/MEF cells obtained from Gli-Luc transgenic mice (Pfizer CoE, Genetically Modified Mice) contain a luciferase reporter gene under the control of the Gli response element. Luciferase activity stimulated with Sonic hedgehog ligand was inhibited by Smo inhibitors, and IC50 was subsequently calculated.
Plates were incubated at 37° C. and 5% CO2 overnight. On day two, cells were dosed with test compounds at a final concentration ranging from […] to 50 μM at a 3-time series dilution. Immediately after dosing cells with compounds, recombinant mouse sonic hedgehog (Shh, R&D Systems 464-SH) was added to a final concentration of 2 μg/mL. The cells were incubated with compounds and Shh for 48 hours at 37° C. and 5% CO2. Luciferase assays were conducted on Day 4 using the Bright-Glo Luciferase assay system (Promega E2620) according to Promega's protocol. Briefly, Bright-Glo luciferase reagent was made up and 25 uL were added to each well of the 384-well plate containing media. Plates were kept at room temperature for 5 minutes, and then read on an Envision Luminescence plate reader (Perkin-Elmer). IC50 of the inhibition was calculated by using GraphPad Prism.

pIC50: −log10 of the molar value. Structures can show the parent of a compound that is named as a salt.

T1 sequence (Q99835 181-787): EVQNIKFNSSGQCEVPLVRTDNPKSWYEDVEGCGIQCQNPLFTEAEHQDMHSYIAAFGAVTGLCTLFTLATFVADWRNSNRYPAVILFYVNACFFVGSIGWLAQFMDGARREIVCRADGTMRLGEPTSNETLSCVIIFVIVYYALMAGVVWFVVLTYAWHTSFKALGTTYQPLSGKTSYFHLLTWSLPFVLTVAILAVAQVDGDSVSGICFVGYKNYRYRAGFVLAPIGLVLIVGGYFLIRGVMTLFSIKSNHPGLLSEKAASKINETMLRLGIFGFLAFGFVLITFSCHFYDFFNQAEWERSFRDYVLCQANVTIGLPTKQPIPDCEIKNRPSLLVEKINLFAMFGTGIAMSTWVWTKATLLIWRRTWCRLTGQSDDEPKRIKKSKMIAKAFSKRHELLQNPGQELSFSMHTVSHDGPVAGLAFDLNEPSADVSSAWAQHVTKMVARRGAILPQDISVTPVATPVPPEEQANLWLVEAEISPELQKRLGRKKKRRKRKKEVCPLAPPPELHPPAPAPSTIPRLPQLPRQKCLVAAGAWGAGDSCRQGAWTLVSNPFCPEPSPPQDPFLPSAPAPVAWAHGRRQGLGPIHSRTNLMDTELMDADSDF

Consider `Cn1c(-c2cc(N3CCNC(=O)CC3)ncc2Cl)nc2ccccc21` [Example A-33, 1-[5-chloro-4-(1-methyl-1H-benzimidazol-2-yl)pyridin-2-yl]-1,4-diazepan-5-one], for which, in assay [1], the inhibition at 0.05 µM came out at 98% and the pIC50 was 8.05. In the assay with Gli-Luc/MEF cells (Smo), this compound gave a pIC50 of 8.10.

On to `Cn1c(-c2cc(N3CC[C@H](O)C3)ncc2Cl)nc2ccccc21` [Example A-28, (3S)-1-[5-chloro-4-(1-methyl-1H-benzimidazol-2-yl)pyridin-2-yl]pyrrolidin-3-ol], for which, in assay [1], the inhibition at 0.05 µM was 82% and the pIC50 was 7.10. Besides, in the assay on Gli-Luc/MEF cells (Smo), the negative-log IC50 (pIC50) was 7.28.

Take `Cn1c(-c2ccnc(N3CCC(CS(C)(=O)=O)CC3)c2)nc2ccccc21` [Example A-12, 1-methyl-2-(2-{4-[(methylsulfonyl)methyl]piperidin-1-yl}pyridin-4-yl)-1H-benzimidazole]: in assay [1], the inhibition at 0.05 µM came out at 82% and the pIC50 is 7.32. The compound further showed a pIC50 with Gli-Luc/MEF cells (Smo) of 7.64.

For `CN1CCN(C2COCCN(c3cc(-c4nc5ccccc5n4C)c(Cl)cn3)C2)CC1` (stereo not shown) [Example A-137, 2-{5-chloro-2-[6-(4-methylpiperazin-1-yl)-1,4-oxazepan-4-yl]pyridin-4-yl}-1-methyl-1H-benzimidazole], the inhibition at 0.05 µM in assay [1] came to 45%.

In the case of `Cn1c(-c2cc(N3CCC(O)(CN4CCCC4=O)C3)ncc2Cl)nc2ccccc21` (stereo not shown) [Example A-136, 1-({1-[5-chloro-4-(1-methyl-1H-benzimidazol-2-yl)pyridin-2-yl]-3-hydroxypyrrolidin-3-yl}methyl)pyrrolidin-2-one], the inhibition at 0.05 µM in assay [1] is 46%.

Take `CC(=O)N1CCN(c2nccc(-c3nc4ccccc4n3C)n2)CC1` [Example C-2, 2-[2-(4-Acetylpiperazin-1-yl)pyrimidin-4-yl]-1-methyl-1H-benzimidazole]: in assay [1], the inhibition at 0.05 µM was determined as 65% and the pIC50 is 6.35.

On to `Cn1c(-c2cc(N3CCC(C(=O)O)CC3)ncc2Cl)nc2ccccc21` [Example A-7, 1-[5-chloro-4-(1-methyl-1H-benzimidazol-2-yl)pyridin-2-yl]piperidine-4-carboxylic acid], for which the inhibition at 0.05 µM in assay [1] came to 39%.

As to `Cn1c(-c2cc(NCCS(C)(=O)=O)ncc2Cl)nc2ccccc21` [Example A-167, 5-chloro-4-(1-methyl-1H-benzimidazol-2-yl)-N-[2-(methylsulfonyl)ethyl]pyridin-2-amine], in assay [1], the inhibition at 0.05 µM stood at 64% and the negative logarithm of the IC50 (pIC50) was 6.54.

`Cn1cnnc1C1CCCN(c2cc(-c3nc4ccccc4n3C)c(Cl)cn2)C1` (stereo not shown) [Example A-138, 2-{5-chloro-2-[3-(4-methyl-4H-1,2,4-triazol-3-yl)piperidin-1-yl]pyridin-4-yl}-1-methyl-1H-benzimidazole]: the inhibition at 0.05 µM in assay [1] was found to be 45%.

For the compound `Cn1c(-c2cc(N3CCC(O)(c4ncccn4)C3)ncc2Cl)nc2ccccc21` (stereo not shown) [Example A-140, 1-[5-chloro-4-(1-methyl-1H-benzimidazol-2-yl)pyridin-2-yl]-3-pyrimidin-2-ylpyrrolidin-3-ol], the inhibition at 0.05 µM in assay [1] was found to be 42%.

As to `COC(=O)N1CCN(c2nccc(-c3nc4ccccc4n3C)n2)CC1` [Example C-6, Methyl 4-[4-(1-methyl-1H-benzimidazol-2-yl)pyrimidin-2-yl]piperazine-1-carboxylate], the inhibition at 0.05 µM in assay [1] was 27%.

As for `Cn1c(-c2cc(N3CCC(S(C)(=O)=O)CC3)ncc2Cl)nc2cccnc21` [Example A-37, 2-{5-chloro-2-[4-(methylsulfonyl)piperidin-1-yl]pyridin-4-yl}-3-methyl-3H-imidazo[4,5-b]pyridine], in assay [1], the inhibition at 0.05 µM amounted to 67% and the negative logarithm of the IC50 (pIC50) was 6.61.

`Cn1c(-c2ccnc(N3CCN(S(C)(=O)=O)CC3)n2)nc2ccccc21` [Example C-4, 1-Methyl-2-{2-[4-(methylsulfonyl)piperazin-1-yl]pyrimidin-4-yl}-1H-benzimidazole]: in assay [1], the inhibition at 0.05 µM is 45%.

Take `COC1CCN(c2cc(-c3nc4cccnc4n3C)c(Cl)cn2)CC1` [Example A-38, 2-[5-chloro-2-(4-methoxypiperidin-1-yl)pyridin-4-yl]-3-methyl-3H-imidazo[4,5-b]pyridine]: in assay [1], the inhibition at 0.05 µM was determined as 51% and the pIC50 is 6.33.

As to `Cn1c(-c2nc(N3CCNCC3)ccc2Cl)nc2ccccc21` [Example B-1, 2-(3-chloro-6-piperazin-1-ylpyridin-2-yl)-1-methyl-1H-benzimidazole formate salt], the inhibition at 0.05 µM in assay [1] was 59%.

`CC(=O)N1CCN(c2cc(-c3nc4cccnc4n3C)c(Cl)cn2)CC1` [Example A-40, 2-[2-(4-acetylpiperazin-1-yl)-5-chloropyridin-4-yl]-3-methyl-3H-imidazo[4,5-b]pyridine]: in assay [1], the inhibition at 0.05 µM came out at 66% and the pIC50 was 6.80.

Turning to `Cn1c(-c2cc(N3CC(c4cccnn4)C3)ncc2Cl)nc2ccccc21` [Example A-139, 2-[5-chloro-2-(3-pyridazin-3-ylazetidin-1-yl)pyridin-4-yl]-1-methyl-1H-benzimidazole], in assay [1], the inhibition at 0.05 µM is 42%.

As for `CN(CCN)c1cc(-c2nc3ccccc3n2C)c(Cl)cn1` [Example A-184, N-[5-chloro-4-(1-methyl-1H-benzimidazol-2-yl)pyridin-2-yl]-N-methylethane-1,2-diamine], in assay [1], the inhibition at 0.05 µM was 50% and the pIC50 is 6.47.

On to `Cn1c(-c2cc(N3CC(c4ncc[nH]4)C3)ncc2Cl)nc2ccccc21` [Example A-133, 2-{5-chloro-2-[3-(1H-imidazol-2-yl)azetidin-1-yl]pyridin-4-yl}-1-methyl-1H-benzimidazole], for which the inhibition at 0.05 µM in assay [1] worked out at 48%.

Turning to `Cn1c(-c2cc(NCCN)ncc2Cl)nc2ccccc21` [Example A-142, N-[5-chloro-4-(1-methyl-1H-benzimidazol-2-yl)pyridin-2-yl]ethane-1,2-diamine], the inhibition at 0.05 µM in assay [1] is 44%.

Turning to `Cc1nccn1CC1(O)CCN(c2cc(-c3nc4ccccc4n3C)c(Cl)cn2)C1` (stereo not shown) [Example A-135, 1-[5-chloro-4-(1-methyl-1H-benzimidazol-2-yl)pyridin-2-yl]-3-[(2-methyl-1H-imidazol-1-yl)methyl]pyrrolidin-3-ol], the inhibition at 0.05 µM in assay [1] was 46%.

For `CC(=O)NC1CCN(c2cc(-c3nc4ccccc4n3C)c(Cl)cn2)C1` (stereo in doubt) [Example A-134, N-{(3S)-1-[5-chloro-4-(1-methyl-1H-benzimidazol-2-yl)pyridin-2-yl]pyrrolidin-3-yl}acetamide], the inhibition at 0.05 µM in assay [1] was determined as 48%.

Usually pIC50 stands for −log10 of the IC50, conventionally taken in molar units.
